# According to ChEMBL document CHEMBL4715849, “Recent Progress in the Discovery of Antifungal Agents Targeting the Cell Wall” (J Med Chem, 2020):
# How the values were obtained:
# Chitin synthase 1 = Chitin synthase 1 (Candida albicans, UniProt P23316); experiment: Inhibition of Candida albicans chitin synthase 1 expressed in Saccharomyces cerevisiae RRA400-1U cells using [3H]UDP-GlcNAc as substrate by scintillation counting method
# Candida albicans [1] = experiment: Antifungal activity against Candida albicans CAI4 incubated for 24 hrs; format: functional
# Candida albicans [2] = experiment: Antifungal activity against Candida albicans CY1002 by NCCLS-based M27-A broth microdilution method; format: functional
# Aspergillus fumigatus [3] = experiment: Antifungal activity against Aspergillus fumigatus CF1003 by NCCLS-based M27-A broth microdilution method; format: functional
# Candida albicans [4] = experiment: Antifungal activity against Candida albicans AMB-25 incubated for 48 hrs by serial two-fold dilution method; format: functional
# [5] = Toxicity in iv dosed mouse; format: organism-based; conditions: in vivo
# [6] = Inhibition of Saccharomyces cerevisiae CGMCC 2.145 CHS using UDP-GlcNAc as substrate incubated for 60 min by WGA-HRP tracer based method
# [7] = Inhibition of Candida albicans GWT1 expressed in Saccharomyces cerevisiae using UDP-GlcNAc as substrate incubated for 20 mins followed by palmitoyl-CoA addition and measured after 2 hrs by TLC-based autography
# [8] = Inhibition of Aspergillus fumigatus GWT1 expressed in Saccharomyces cerevisiae using UDP-GlcNAc as substrate incubated for 20 mins followed by palmitoyl-CoA addition and measured after 2 hrs by TLC-based autography
# Candida albicans [9] = experiment: Antifungal activity against Candida albicans CAF2-1; format: functional
# Aspergillus fumigatus [10] = experiment: Antifungal activity against Aspergillus fumigatus(Tsukuba); format: functional
# Candida albicans [11] = experiment: Antifungal activity against Candida albicans Ca2323/ORF6.945 by CLSI method; format: functional
# Candida albicans [12] = experiment: Antifungal activity against Candida albicans Ca1055 by CLSI method; format: functional
# Candida parapsilosis = experiment: Antifungal activity against Candida parapsilosis ATCC22019 by CLSI method; format: functional; conditions: Lodderomyces parapsilosis
# Clavispora lusitaniae = experiment: Antifungal activity against Candida lusitaniae MY1396 by CLSI method; format: functional
# Nakaseomyces glabratus [13] = experiment: Antifungal activity against Candida glabrata MY1381 by CLSI method; format: functional
# Aspergillus fumigatus [14] = experiment: Antifungal activity against Aspergillus fumigatus MF5668 by CLSI method; format: functional
# Pichia kudriavzevii = experiment: Antifungal activity against Candida krusei ATCC 6258 by CLSI method; format: functional
# Aspergillus fumigatus [15] = experiment: Antifungal activity against Aspergillus fumigatus IAM2034 incubated for 40 hrs by serial agar dilution method; format: functional
# Aspergillus fumigatus [16] = experiment: Antifungal activity against Aspergillus fumigatus IAM2530 incubated for 40 hrs by serial agar dilution method; format: functional
# Cryptococcus neoformans [17] = experiment: Antifungal activity against Cryptococcus neoformans IAM4514 incubated for 40 hrs by serial agar dilution method; format: functional
# Cryptococcus neoformans [18] = experiment: Antifungal activity against Cryptococcus neoformans D49 incubated for 40 hrs by serial agar dilution method; format: functional
# Candida albicans [19] = experiment: Antifungal activity against Candida albicans A9540 incubated for 40 hrs by serial agar dilution method; format: functional
# Candida albicans [20] = experiment: Antifungal activity against Candida albicans IAM 888 incubated for 40 hrs by serial agar dilution method; format: functional
# Aspergillus flavus = experiment: Antifungal activity against Aspergillus flavus FA21436 NRRL 484 incubated for 40 hrs by serial agar dilution method; format: functional
# Fusarium verticillioides = experiment: Antifungal activity against Fusarium monoliforme A2284 incubated for 40 hrs by serial agar dilution method; format: functional
# [21] = tested on: Trichophyton mentagrophytes; experiment: Antifungal activity against Trichophyton mentagrophytes D155 incubated for 40 hrs by serial agar dilution method; format: functional
# [22] = tested on: Trichophyton mentagrophytes; experiment: Antifungal activity against Trichophyton mentagrophytes N0.4329 incubated for 40 hrs by serial agar dilution method; format: functional
# Blastomyces dermatitidis = experiment: Antifungal activity against Blastomyces dermatitidis IFO8144 incubated for 40 hrs by serial agar dilution method; format: functional
# Sporothrix schenckii = experiment: Antifungal activity against Sporothrix schenckii IFO8158 incubated for 40 hrs by serial agar dilution method; format: functional
# Scedosporium boydii = experiment: Antifungal activity against Petriellidium boydii IFO8078 incubated for 40 hrs by serial agar dilution method; format: functional
# Candida albicans [23] = experiment: Antifungal activity against Candida albicans A9540 infected in iv dosed ICR mouse assessed as protection against fungus-induced lethal infection dosed once immediately following fungal challenge and measured on day 20 post infection; format: functional; conditions: 480 h, time 20 day, read-out: PD50
# Candida albicans [24] = experiment: Antifungal activity against Candida albicans incubated for 24 hrs by serial 2-fold dilution method; format: functional
# Nakaseomyces glabratus [25] = experiment: Antifungal activity against Candida glabrata incubated for 24 hrs by serial 2-fold dilution method; format: functional
# Candida tropicalis = experiment: Antifungal activity against Candida tropicalis incubated for 24 hrs by serial 2-fold dilution method; format: functional
# Chitin synthase 1, sequence (P23316 whole entry): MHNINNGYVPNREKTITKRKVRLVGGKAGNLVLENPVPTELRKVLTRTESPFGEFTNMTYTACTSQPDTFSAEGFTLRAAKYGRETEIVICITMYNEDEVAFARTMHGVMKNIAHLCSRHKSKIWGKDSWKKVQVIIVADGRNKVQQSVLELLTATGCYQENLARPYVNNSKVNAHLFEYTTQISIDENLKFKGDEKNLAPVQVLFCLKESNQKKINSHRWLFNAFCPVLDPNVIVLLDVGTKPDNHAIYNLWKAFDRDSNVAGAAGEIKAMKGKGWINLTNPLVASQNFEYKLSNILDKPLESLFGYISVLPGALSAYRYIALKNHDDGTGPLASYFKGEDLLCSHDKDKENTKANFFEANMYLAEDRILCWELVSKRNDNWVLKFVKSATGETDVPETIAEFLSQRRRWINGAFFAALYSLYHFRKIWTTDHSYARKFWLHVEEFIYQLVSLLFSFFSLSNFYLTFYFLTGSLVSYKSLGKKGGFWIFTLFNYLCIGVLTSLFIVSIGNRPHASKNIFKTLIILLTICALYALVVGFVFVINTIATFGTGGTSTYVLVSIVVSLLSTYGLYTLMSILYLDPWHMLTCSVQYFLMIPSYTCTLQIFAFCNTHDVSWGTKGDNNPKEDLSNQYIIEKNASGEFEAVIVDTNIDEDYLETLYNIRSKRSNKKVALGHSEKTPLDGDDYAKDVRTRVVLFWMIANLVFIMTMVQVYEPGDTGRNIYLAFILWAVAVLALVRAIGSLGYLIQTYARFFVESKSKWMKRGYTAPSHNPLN
structure (smiles),measurement,setting,value
CC(C)(C)C#CC=CCNc1cccc2[nH]c(=O)ccc12,Ki,Chitin synthase 1,630 nM
same,MIC50,Candida albicans [1],3.3 µM
C[C@@H]([C@H](N)C(=O)N[C@H](C(=O)O)[C@H]1O[C@@H](n2ccc(=O)[nH]c2=O)[C@H](O)[C@@H]1O)[C@H](O)c1ccc(O)cn1 [NIKKOMYCIN],MIC50,Candida albicans [2],12 µg/mL
same,MIC50,Aspergillus fumigatus [3],11 µg/mL
CCC[C@H](N)C(=O)N[C@@H](CNC(=O)/C=C/C(=O)OC)C(=O)O,MIC,Candida albicans [4],0.4 µg/mL
same,LD50,[5],> 300 mg/kg
COc1ccc(N2CCN(C(=O)[C@H](O)[C@@H](O)C(=O)Nc3c(O)c4cc(O)ccc4oc3=O)CC2)cc1,IC50,[6],100 µM
Nc1ncccc1-c1cc(Cc2ccc(COc3ccccn3)cc2)no1 [MANOGEPIX],IC50,[7],270 nM
same,IC50,[8],600 nM
same,MIC,Candida albicans [9],0.05 µg/mL
same,MIC,Aspergillus fumigatus [10],0.2 µg/mL
C=C1[C@@H]2C[C@@H]3[C@H](C(C)C)[C@@H](OC(=O)CC(C)(O)CC(C)CC)C[C@@]3(C)C[C@H]2/C(C)=C\C[C@@H]2[C@@H](C)OC(=O)[C@H](O)[C@]12O (stereo not given in full),MIC,Candida albicans [11],0.5 µg/mL
same,MIC,Candida albicans [12],0.5 µg/mL
same,MIC,Candida parapsilosis,0.5 µg/mL
same,MIC,Clavispora lusitaniae,0.25 µg/mL
same,MIC,Nakaseomyces glabratus [13],0.5 µg/mL
same,MIC,Aspergillus fumigatus [14],0.25 µg/mL
same,MIC,Pichia kudriavzevii,1 µg/mL
CN[C@@H]1[C@H](O[C@@H]2OC[C@@H](O)[C@H](O)[C@H]2O)[C@@H](O)[C@H](O[C@H]2c3cc(C)c(C(=O)N[C@H](CO)C(=O)O)c(O)c3-c3c(cc4c(c3O)C(=O)c3cc(OC)cc(O)c3C4=O)[C@@H]2O)O[C@@H]1C,MIC,Aspergillus fumigatus [15],0.8 µg/mL
same,MIC,Aspergillus fumigatus [16],0.8 µg/mL
same,MIC,Cryptococcus neoformans [17],0.8 µg/mL
same,MIC,Cryptococcus neoformans [18],0.8 µg/mL
same,MIC,Candida albicans [19],0.8 µg/mL
same,MIC,Candida albicans [20],0.8 µg/mL
same,MIC,Aspergillus flavus,0.8 µg/mL
same,MIC,Fusarium verticillioides,0.8 µg/mL
same,MIC,[21],0.8 µg/mL
same,MIC,[22],0.8 µg/mL
same,MIC,Blastomyces dermatitidis,0.8 µg/mL
same,MIC,Sporothrix schenckii,0.8 µg/mL
same,MIC,Scedosporium boydii,0.8 µg/mL
same,ED50,Candida albicans [23],7.4 mg/kg
COC(=O)/C=C/C(=O)NC[C@H](NC(=O)CN(CCOC(C)=O)CCOC(C)=O)C(=O)OCOC(=O)Cc1ccccc1.Cl,MIC,Candida albicans [24],31.3 µg/mL
same,MIC,Nakaseomyces glabratus [25],125 µg/mL
same,MIC,Candida tropicalis,31.3 µg/mL
